Data as given in ChEMBL document CHEMBL3507680, “University of Dundee, Gates Library screen for HepG2 cell viability”.

experiment: Human HepG2 cell viability assay in 384 well format; assay type: toxicity, cell-based; design: dose 125 nL, time 70.5 hour; cytotoxicity at 70.5 h: concentration not given beside the values; conditions: HepG2 cells, read-out: Inhibition

| Structure (SMILES) | cytotoxicity at 70.5 h [%] |
| --- | --- |
| CC(C(=O)N1CCN(CCOc2ccccc2)CC1)n1cncn1 (configuration not stated) | 9.32 |
| CCn1[nH]c(C)c2c(C(F)(F)F)cc(=O)nc1-2 | -4.81 |
| CCN1CCC(CNS(=O)(=O)N2CCc3ccccc3C2)C1 (configuration not stated) | 6.73 |
| COc1ccc(F)cc1C(C)NC(=O)Nc1nncs1 (configuration not stated) | 4.1 |
| Cn1cc(CN2C[C@H](Oc3ncccc3F)[C@H]3OCCC[C@H]32)cn1 | -10.3 |
| Cc1ccc(S(=O)(=O)NCCCN2CCC(O)CC2)cc1Cl | 4.78 |
| COc1cc(C)c(C(C)NC(=O)NCCCn2cncn2)cc1OC (configuration not stated) | -5.14 |
| CCc1cnc(CN(C(C)=O)C2CCN(CCc3cccs3)C2)o1 (configuration not stated) | 8.24 |
| Cc1nc(Nc2ncccn2)cc(C2CCCN2C)n1 (configuration not stated) | -7.58 |
| CCC1=N[C@@]2(CC[C@@H]3CN(S(=O)(=O)CC(C)C)C[C@@H]32)C(=O)N1CC | 1.37 |
| O=C(c1ccnnc1)N1C[C@H]2CCC[C@@]2(COCC2CCOCC2)C1 | -13 |
| CS(=O)(=O)c1nccn1Cc1ccc(Cl)cc1 | -5.04 |
| CCN(Cc1nc2c(cnn2C)c(=O)[nH]1)c1cc(C)ccc1C | -15.9 |
| CC(=O)N1N=C(c2ccco2)OC1C(=O)NCC(C)C (configuration not stated) | -4.23 |
| O=S(=O)(NC1CCCCC12OCCO2)c1cc(F)cc(F)c1 (configuration not stated) | -3.19 |
| COc1cc(NCc2ccncc2)c(-c2nn[nH]n2)cc1OC | -1.7 |
| O=C(CCOc1ccccc1Cl)N1CCN(c2cnccn2)CC1 | 0.75 |
| CC(=O)NCCC(=O)Nc1sccc1C(=O)C(C)(C)C | 2.44 |
| CC(=O)Nc1cccc(-c2ccccc2CCN)c1 | -1.04 |

| Structure (SMILES) | cytotoxicity at 70.5 h [%] |
| --- | --- |
| O=C(NCC(F)(F)F)C1CSCN1S(=O)(=O)c1cccc(F)c1 (configuration not stated) | -12 |
| COc1cc(N2CC[C@H](O)[C@@H]2Cc2cccnc2)ncn1 | -10.8 |
| CSCC[C@H](N)C(=O)N1CC(Oc2ccccc2C)C1 | -3.44 |
| Cc1nccc(C(=O)N2CCCC2c2noc(C(C)C)n2)n1 (configuration not stated) | 22.8 |
| Cc1cc(C)n(CC2CCCN2C(=O)c2cccc3[nH]ncc23)n1 (configuration not stated) | -8.53 |
| CN(C)c1cncc(C2CCN(C(=O)CO)CC2)n1 | -22.6 |
| Cc1nn(C)c(N2CCOCC2)c1CNCc1ccc(N(C)C)nc1 | 15.7 |
| Cc1cccc(C)c1CN1C(=O)CC2(CCSC2)C1=O (configuration not stated) | 0.0631 |
| COc1cccc(COCC(=O)N2CCCN(CC(N)=O)CC2)c1 | -9.55 |
| CCn1ncc(CN2C[C@@H]3CCCN3C[C@@H]2CCSC)c1C | -6.31 |
| CCOc1ccc(CN2CCCC(c3cc4ncccc4[nH]3)C2)cc1 (configuration not stated) | 6.95 |
| Cc1nn(C)c(C)c1CNCc1cccnc1N1CCOCC1 | -7.44 |
| CCC(C(=O)NC1CCCCC1)n1cccc(OC)c1=O (configuration not stated) | -1.81 |
| Cc1nn(C)c(C)c1-c1ccnc(N(C)Cc2nc(C(C)C)no2)n1 | 3.94 |
| CCOC(=O)CN1CCC(NC(=O)OC(C)(C)C)CC1 | 14.9 |
| Cc1cc(C2CCCN2Cc2ccn(C)c(=O)c2)on1 (configuration not stated) | -3.44 |
| COc1ncccc1CNC(=O)c1cc(C)on1 | -8.23 |
| CC(=O)NCCNC(=O)c1cnc(-c2ccccc2)nc1 | -17.1 |
| O=C(O)CCc1ccc(S(=O)(=O)Nc2cnn(CC(F)(F)F)c2)cc1 | -5.48 |

| Structure (SMILES) | cytotoxicity at 70.5 h [%] |
| --- | --- |
| O=C(NCCCn1cccn1)c1nc2ccccc2[nH]1 | -10.1 |
| O=C1OCCC1N1CCN(c2ccccn2)CC1 (configuration not stated) | -15.5 |
| COc1cccc2c1OCC(C(=O)N1CCSCC1)C2 (configuration not stated) | -8.37 |
| COCCc1noc(CN2CCCC(Cn3nc(C)nc3C)C2)n1 (configuration not stated) | 2.6 |
| COc1cccc2c1OCC(C(=O)N1CCN(CCS(C)(=O)=O)CC1)C2 (configuration not stated) | -4.99 |
| O=C(CNC(=O)C1CC1)NCC(F)(F)F | 1.27 |
| Cc1cc(C)n2nc(C(=O)N3CCCC4(CNC(=O)O4)C3)cc2n1 (configuration not stated) | 13.7 |
| Cc1cc(CN(C)c2nc(-c3ccco3)nc3c2CCN(C)CC3)on1 | -22.6 |
| Cc1cc(NC(=O)C(C)N2CCN(c3ccc(C#N)cc3F)CC2)no1 (configuration not stated) | -11.7 |
| CC(=O)N(Cc1noc(C2CC2)n1)C1CCN(Cc2nccn2C)C1 (configuration not stated) | -5.66 |
| CC(C)(C)C(=O)N1CCCC(c2ncncc2-c2ccncc2)C1 (configuration not stated) | -4.45 |
| O=C(CCn1c(C(F)(F)F)cc2cccnc21)N1CCC(O)CC1 | 2.54 |
| CCc1nc(COc2ccc(N(C)C(C)=O)cc2)no1 | 26 |
| Cc1cc(C)n(Cc2cc(C(=O)N3CCCC3c3ccccn3)n[nH]2)n1 (configuration not stated) | -17.2 |
| COCc1nn(Cc2ccc(Cl)s2)c(=O)o1 | -13.7 |
| O=C(c1ccnnc1)N1CCO[C@H]2[C@H](Oc3cccnc3)CC[C@@H]21 | -13.8 |
| Cc1nn(CC(=O)Nc2cccc(F)c2)c(N)c1C#N | -5.02 |
| COc1cccc(CNC(CN2CCN(C)CC2)c2ccccc2)c1 (configuration not stated) | 5.01 |
| COc1ccc(F)cc1C(=O)N1CCn2c(nnc2C(F)(F)F)C1 | -5.57 |
